For orientation: Ki means a dissociation constant, usually derived from enzyme kinetics or from competition with a known ligand. The term inhibition denotes the relative decrease from the control value, in per cent.

64 compounds from patent US20050009840A1 (SUGEN, INC., priority 2003, published 2005) can be followed below.

T1 sequence (P08581 974-1390 limits assumed): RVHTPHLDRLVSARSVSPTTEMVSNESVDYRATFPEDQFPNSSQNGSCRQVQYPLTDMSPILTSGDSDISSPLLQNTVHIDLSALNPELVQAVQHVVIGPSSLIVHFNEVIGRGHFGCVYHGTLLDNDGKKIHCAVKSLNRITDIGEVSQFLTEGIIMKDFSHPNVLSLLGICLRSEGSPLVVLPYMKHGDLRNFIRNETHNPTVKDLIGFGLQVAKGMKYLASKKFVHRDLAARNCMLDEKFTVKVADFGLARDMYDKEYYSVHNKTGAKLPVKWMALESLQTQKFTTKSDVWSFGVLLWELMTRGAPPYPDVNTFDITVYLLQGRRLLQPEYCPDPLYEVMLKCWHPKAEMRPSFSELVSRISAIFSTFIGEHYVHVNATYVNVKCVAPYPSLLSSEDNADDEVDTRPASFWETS

The first test has as its target T1, HGFR (Homo sapiens, UniProt P08581).
T1 construct: purchased Upstate 14-526
Briefly: HGFR continuous-coupled spectrophotometric assay. It counts as biochemical. To be noted: Table 3, column 'Ki (μM) or I (%)': cells without % sign; read-out: Ki.
With `CC(Oc1cc(-c2ccc(C(=O)N3C[C@@H](C)N[C@@H](C)C3)cc2F)cnc1N)c1c(Cl)ccc(F)c1Cl` (stereo partly shown) [Example I-552, (4-{6-Amino-5-[1-(2,6-dichloro-3-fluoro-phenyl)-ethoxy]-pyridin-3-yl}-3-fluoro-phenyl)-(dimethyl-piperazin-1-yl)-methanone], the Ki was 0.224 µM.

Still in this test, the particulars now being: at 1 pM; Table 6, library procedure 41; read-out: % Inhibition (percent c-MET inhibition).
`Nc1ncc(C(=O)N2CCCC(O)(COc3cccc(F)c3)C2)cc1OCc1c(Cl)cccc1Cl` [Example L-342]: the inhibition at 1 pM is 36%.
On to `Cc1cnc(CNC(=O)c2cnc(N)c(OCc3c(Cl)cccc3Cl)c2)cn1` [Example L-215], for which the inhibition at 1 pM turned out to be 33%.
Same read-out and setting: as for `Nc1ncc(C(=O)N2CCS(=O)(=O)CC2)cc1OCc1c(Cl)cccc1Cl` [Example L-269], the figure is 10%; as for `CN(C)CC(C)(C)CNC(=O)c1cnc(N)c(OCc2c(Cl)cccc2Cl)c1` [Example L-191], 38%.
As for `CS(=O)(=O)CCN1CCN(C(=O)c2cnc(N)c(OCc3c(Cl)cccc3Cl)c2)CC1` [Example L-299], the inhibition at 1 pM came out at 25%.
Still for that read-out and setting: for `Nc1ncc(C(=O)NC2CCSC2=O)cc1OCc1c(Cl)cccc1Cl` [Example L-189] the value was 35%.
Take `CC(C)OCCNC(=O)c1cnc(N)c(OCc2c(Cl)cccc2Cl)c1` [Example L-256]: the inhibition at 1 pM was determined as 46%.
`Nc1ncc(C(=O)NCCCO)cc1OCc1c(Cl)cccc1Cl` [Example L-180]: the inhibition at 1 pM turned out to be 26%.
In the case of `Nc1ncc(C(=O)N2CCC(N3CCCCC3=O)CC2)cc1OCc1c(Cl)cccc1Cl` [Example L-283], the inhibition at 1 pM was found to be 26%.
As to `Nc1ncc(C(=O)NCc2ccc[nH]c2=O)cc1OCc1c(Cl)cccc1Cl` [Example L-310], the inhibition at 1 pM is 16%.
`Nc1ncc(C(=O)N2CCNC(=O)CC2)cc1OCc1c(Cl)cccc1Cl` [Example L-285]: the inhibition at 1 pM amounted to 31%.
For `Nc1ncc(C(=O)N2CCC(O)(CCc3ccncc3)CC2)cc1OCc1c(Cl)cccc1Cl` [Example L-322], the inhibition at 1 pM was 25%.
For `Nc1ncc(C(=O)NC2CCCNC2=O)cc1OCc1c(Cl)cccc1Cl` [Example L-293], the inhibition at 1 pM was 16%.
With `Nc1ncc(C(=O)NCCc2ccccc2F)cc1OCc1c(Cl)cccc1Cl` [Example L-199], the inhibition at 1 pM came to 33%.
Still for that read-out and setting: for `C[C@@H]1CN(C(=O)c2cnc(N)c(OCc3c(Cl)cccc3Cl)c2)C[C@H](C)O1` [Example L-243] the value was 32%; for `Nc1ncc(C(=O)N2CCCC(C(=O)N3CCCC3)C2)cc1OCc1c(Cl)cccc1Cl` [Example L-286], 47%.

The test is the same for the next values; noted with them: at 1 pM; Table 7, library procedure 42; read-out: % Inhibition (percent c-MET inhibition).
Consider `Nc1ncc(-c2ccc(C(=O)N3CCC(N4CCCC4)CC3)cc2)cc1OCc1ccc(Br)cc1F`, for which the inhibition at 1 pM came out at 31%.
`N#Cc1ccc(COc2cc(-c3ccc(C(=O)N4CCC(N5CCCC5)CC4)cc3)cnc2N)cc1`: the inhibition at 1 pM is 8%.
Same read-out and setting: for `Cc1nc(COc2cc(-c3ccc(C(=O)N4CCC(N5CCCC5)CC4)cc3)cnc2N)n(C)n1` the value was 14%; for `Nc1ncc(-c2ccc(C(=O)N3CCC(N4CCCC4)CC3)cc2)cc1OCc1cccc(C(=O)Nc2ccc(N3CCCCC3)cc2)c1`, 32%; for `Nc1ncc(-c2ccc(C(=O)N3CCC(N4CCCC4)CC3)cc2)cc1OCc1cc(F)ccc1Br`, 24%.
Regarding `Nc1ncc(-c2ccc(C(=O)N3CCC(N4CCCC4)CC3)cc2)cc1OCc1cn2cc(Cl)ccc2n1`, the inhibition at 1 pM amounted to 16%.
Take `Cc1nc2ccc(COc3cc(-c4ccc(C(=O)N5CCC(N6CCCC6)CC5)cc4)cnc3N)cc2c(=O)[nH]1`: the inhibition at 1 pM was 12%.
On the same count and under the same terms, as for `Nc1ncc(-c2ccc(C(=O)N3CCC(N4CCCC4)CC3)cc2)cc1OCc1ccc(Cl)c(Cl)c1`, the figure is 26%; as for `Cc1ccc(COc2cc(-c3ccc(C(=O)N4CCC(N5CCCC5)CC4)cc3)cnc2N)cc1Cl`, 26%.
With `Nc1ncc(-c2ccc(C(=O)N3CCC(N4CCCC4)CC3)cc2)cc1OCc1ccc(OCc2ccccc2)cc1`, the inhibition at 1 pM is 49%.
On to `Cn1nc(-c2ccccc2)nc1COc1cc(-c2ccc(C(=O)N3CCC(N4CCCC4)CC3)cc2)cnc1N`, for which the inhibition at 1 pM worked out at 5%.
As to `Cn1ccnc1COc1cc(-c2ccc(C(=O)N3CCC(N4CCCC4)CC3)cc2)cnc1N`, the inhibition at 1 pM is 14%.
As to `Nc1ncc(-c2ccc(C(=O)N3CCC(N4CCCC4)CC3)cc2)cc1OCc1ccc(C(=O)NCc2cccnc2)cc1`, the inhibition at 1 pM amounted to 15%.
On to `Nc1ncc(-c2ccc(C(=O)N3CCC(N4CCCC4)CC3)cc2)cc1OCc1nc2cccnc2[nH]1`, for which the inhibition at 1 pM was 17%.
As for `Nc1ncc(-c2ccc(C(=O)N3CCC(N4CCCC4)CC3)cc2)cc1OCc1nc(-c2ccccc2)n[nH]1`, the inhibition at 1 pM is -2%.
`Nc1ncc(-c2ccc(C(=O)N3CCC(N4CCCC4)CC3)cc2)cc1OCc1noc(-c2cccc(C(F)(F)F)c2)n1`: the inhibition at 1 pM worked out at 27%.
Regarding `COc1cc(COc2cc(-c3ccc(C(=O)N4CCC(N5CCCC5)CC4)cc3)cnc2N)cc(OC)c1`, the inhibition at 1 pM turned out to be 17%.
Turning to `Nc1ncc(-c2ccc(C(=O)N3CCC(N4CCCC4)CC3)cc2)cc1OCc1c(F)ccc(F)c1F`, the inhibition at 1 pM was found to be 30%.
As for `Cc1cc(COc2cc(-c3ccc(C(=O)N4CCC(N5CCCC5)CC4)cc3)cnc2N)nc(-c2ccc(C(F)(F)F)cn2)n1`, the inhibition at 1 pM turned out to be 8%.
The same measure, in the same setting: as for `Nc1ncc(-c2ccc(C(=O)N3CCC(N4CCCC4)CC3)cc2)cc1OCc1ccc(F)cc1F`, the figure is 18%; as for `Nc1ncc(-c2ccc(C(=O)N3CCC(N4CCCC4)CC3)cc2)cc1OCc1cccc(-c2ccnc(Br)n2)c1`, 13%; as for `CCOC(=O)CCNC(=O)c1cccc(COc2cc(-c3ccc(C(=O)N4CCC(N5CCCC5)CC4)cc3)cnc2N)c1`, 14%.

Staying with this test, now noted: at 50 nM; Table 5, library procedure 40; read-out: % inhibition (percent c-MET inhibition).
Regarding `CCN(Cc1ccncc1)C(=O)c1ccc(-c2cnc(N)c(OC(C)c3c(Cl)ccc(F)c3Cl)c2)cc1` [Example L-41], the inhibition at 0.05 µM is 84%.
For the compound `CC(Oc1cc(-c2ccc(C(=O)NCCC#N)cc2)cnc1N)c1c(Cl)ccc(F)c1Cl` [Example L-109], the inhibition at 0.05 µM was 76%.
As to `CCN1CC(NC(=O)c2ccc(-c3cnc(N)c(OC(C)c4c(Cl)ccc(F)c4Cl)c3)cc2)CN1CC` [Example L-65], the inhibition at 0.05 µM was 79%.
`CC(Oc1cc(-c2ccc(C(=O)N3CCC(N(C)C)CC3)cc2)cnc1N)c1c(Cl)ccc(F)c1Cl` [Example L-26]: the inhibition at 0.05 µM turned out to be 92%.
Still for that read-out and setting: for `CC(Oc1cc(-c2ccc(C(=O)NC3CCCCC3)cc2)cnc1N)c1c(Cl)ccc(F)c1Cl` [Example L-87] the value was 56%; for `CC(Oc1cc(-c2ccc(C(=O)NCCCc3c[nH]nc3O)cc2)cnc1N)c1c(Cl)ccc(F)c1Cl` [Example L-150], 81%; for `CC(Oc1cc(-c2ccc(C(=O)N(C)CCc3ccccn3)cc2)cnc1N)c1c(Cl)ccc(F)c1Cl` [Example L-37], 75%.
With `CC(C)NC(=O)CN1CCN(C(=O)c2ccc(-c3cnc(N)c(OC(C)c4c(Cl)ccc(F)c4Cl)c3)cc2)CC1` [Example L-38], the inhibition at 0.05 µM is 86%.
Still for that read-out and setting: as for `CC(Oc1cc(-c2ccc(C(=O)NC3(CO)CCCC3)cc2)cnc1N)c1c(Cl)ccc(F)c1Cl` [Example L-81], the figure is 67%.
On to `CC(Oc1cc(-c2ccc(C(=O)N(C)CCC#N)cc2)cnc1N)c1c(Cl)ccc(F)c1Cl` [Example L-78], for which the inhibition at 0.05 µM was found to be 68%.
Regarding `CNC(=O)c1ccc(-c2cnc(N)c(OC(C)c3c(Cl)ccc(F)c3Cl)c2)cc1` [Example L-102], the inhibition at 0.05 µM was determined as 82%.
As for `CC(Oc1cc(-c2ccc(C(=O)NCCc3ccccc3F)cc2)cnc1N)c1c(Cl)ccc(F)c1Cl` [Example L-35], the inhibition at 0.05 µM worked out at 55%.
Take `CC(Oc1cc(-c2ccc(C(=O)N3CCC(O)CC3)cc2)cnc1N)c1c(Cl)ccc(F)c1Cl` [Example L-29]: the inhibition at 0.05 µM worked out at 86%.
The same measure, in the same setting: as for `CCN(CC)CCN1CCN(C(=O)c2ccc(-c3cnc(N)c(OC(C)c4c(Cl)ccc(F)c4Cl)c3)cc2)CC1` [Example L-137], the figure is 78%.
Turning to `Cc1cccc(CN(C)C(=O)c2ccc(-c3cnc(N)c(OC(C)c4c(Cl)ccc(F)c4Cl)c3)cc2)n1` [Example L-144], the inhibition at 0.05 µM stood at 71%.
Take `CCN(CCO)C(=O)c1ccc(-c2cnc(N)c(OC(C)c3c(Cl)ccc(F)c3Cl)c2)cc1` [Example L-62]: the inhibition at 0.05 µM came out at 94%.

The test is the same for the next values; noted with them: at 1 μM; Table 8, library procedure 43; read-out: % Inhibition (percent c-MET inhibition).
As for `CC1CN(C(=O)c2ccc(-c3cnc(N)c(OCc4ccc(C(=O)NCCN5CCCC5)cc4)c3)cc2)CC(C)N1` (stereo not shown), the inhibition at 1 µM is 12%.
As to `Cc1ccc(F)cc1COc1cc(-c2ccc(C(=O)N3CC(C)NC(C)C3)cc2)cnc1N` (stereo not shown), the inhibition at 1 µM came out at 28%.
Regarding `CC1CN(C(=O)c2ccc(-c3cnc(N)c(OCc4ccc5ccccc5c4Br)c3)cc2)CC(C)N1` (stereo not shown), the inhibition at 1 µM is 58%.
As to `CC1CN(C(=O)c2ccc(-c3cnc(N)c(OCc4cccc(C#N)c4)c3)cc2)CC(C)N1` (stereo not shown), the inhibition at 1 µM came to 11%.
Regarding `CC1CN(C(=O)c2ccc(-c3cnc(N)c(OCc4ccc(C(=O)NCc5cccnc5)cc4)c3)cc2)CC(C)N1` (stereo not shown), the inhibition at 1 µM came out at 8%.
On to `CC1CN(C(=O)c2ccc(-c3cnc(N)c(OCc4ccc(-c5ccnc(Br)n5)cc4)c3)cc2)CC(C)N1` (stereo not shown), for which the inhibition at 1 µM came to 17%.
As for `CC1CN(C(=O)c2ccc(-c3cnc(N)c(OCc4cc(F)cc(C(F)(F)F)c4)c3)cc2)CC(C)N1` (stereo not shown), the inhibition at 1 µM was determined as 19%.

Still in this test, the particulars now being: cells prefixed Ki; read-out: Met Ki.
For the compound `CC(Oc1cc(-c2ccc(OCC(=O)N3C[C@@H](C)N[C@@H](C)C3)cc2)cnc1N)c1c(Cl)ccc(F)c1Cl` (stereo partly drawn) [Example I-477, 2-(4-{6-Amino-5-[1-(2,6-dichloro-3-fluoro-phenyl)-ethoxy]-pyridin-3-yl}-phenoxy)-1-((3R,5S)-3,5-dimethyl-piperazin-1-yl)-ethanone], the inhibition constant (Ki) stood at 0.027 µM.

The same test, now with this note: read-out: % Inhibition (percent c-MET inhibition).
Consider `CCC(=O)C(c1ccccc1)C1CCN(C(=O)c2cnc(N)c(OCc3c(Cl)cccc3Cl)c2)CC1` [Example L-192], for which the inhibition at 1 pM worked out at 44%.
